The values that follow come from article PMC8443048 (PLoS Pathogens, 2021).

Molecules are shown by their SMILES.

The target in the assay is T1, isocitrate lyase (ICL) (Brucella abortus, UniProt Q2YQA0).
T1 construct: gene BAB1_1631
The note with it: covalent; adduct with Cys185; active site.

T1 sequence (Q2YQA0 1-429): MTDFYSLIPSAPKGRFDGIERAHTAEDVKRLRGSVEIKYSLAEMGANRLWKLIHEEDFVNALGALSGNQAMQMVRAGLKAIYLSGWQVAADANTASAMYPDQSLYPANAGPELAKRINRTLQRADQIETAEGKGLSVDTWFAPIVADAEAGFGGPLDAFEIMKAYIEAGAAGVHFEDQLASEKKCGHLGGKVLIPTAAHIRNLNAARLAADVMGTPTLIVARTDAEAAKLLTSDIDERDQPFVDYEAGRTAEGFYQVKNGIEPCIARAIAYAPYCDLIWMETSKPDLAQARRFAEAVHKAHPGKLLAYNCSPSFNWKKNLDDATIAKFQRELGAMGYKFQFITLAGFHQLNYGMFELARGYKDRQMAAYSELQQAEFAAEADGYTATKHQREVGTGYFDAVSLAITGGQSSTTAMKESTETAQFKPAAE

Take `C=C(CC(=O)O)C(=O)O` [itaconate]: the “X-ray crystallography of the complex, 1.8 Å” value was “unambiguously shows a covalent adduct between itaconate and Cys185 in B. abortus isocitrate lyase”.
